Source: patent publication US4985547A, “External skin care preparation” (Kao Corporation, priority 1987, dated 1991)

Key:
horny layer = test: Skin conductance (water content of horny layer) after two-week coating on cheeks; type: in vivo, women; parameters: key: conductance meter reading; ≤5 = severe roughness, ≥20 = no roughness; details: Invention Product 1: vaseline and compound 3:1 by weight; two weeks; 20° C., 40% humidity; 5 and smaller = severe roughness, 20 or greater = no substantial roughness
Text: (§1) Compounds Ia1 -Ia18 prepared respectively in Referential Examples 1, 2 and 3 and following the procedures of these referential examples, compounds Ib1 -Ib5 prepared respectively in Referential Example 4 and following the procedure of the referential example, compounds Id1 -Id5 prepared respectively in Referential Example 5 and following the procedure of the referential example, compounds Ie1 -Ie4 prepared respectively in Referential Examples 6-9, and conventional compounds Ic1 -Ic13, Ie5 -Ie14 and II1 -II12 were used separately. Mixtures (Invention Products 1), each of which had been formulated by mixing vaseline and the compound (I or II) at a weight ratio of 3:1, and vaseline (Comparative Product 1) were evaluated in skin conductance and skin roughness by the following methods.
(§2) Chosen as volunteers in winter were 10 women of 20-50 years of old who had skin roughness on their both cheeks. Different external skin care preparations were coated separately on the left and right cheeks of each volunteer for two weeks. On the following day of the completion of the two-week coating test, tests were conducted with respect to the following properties.
After washing the face with warm water of 37° C., each volunteer was allowed to rest for 20 minutes in a room which was air-conditioned at 20° C. and 40% humidity. The water content of their horny layer was measured by a skin conductance meter (manufactured by IBS Company). A smaller conductance value indicates greater skin roughness. Conductance values of 5 and smaller indicate severe skin roughness. On the contrary, no substantial skin roughness is observed where this value is 20 or greater.

skin roughness = test: Score of skin roughness, visual ranking after two-week coating on cheeks; type: in vivo, women; details: average, 4 = severe
Text: as §1, §2
Skin roughness was observed visually and ranked in accordance with the following standard. Each score was indicated by an average value.
Score Ranking of skin roughness
0 No skin roughness was observed.
1 Slight skin roughness was observed.
2 Skin roughness was observed.
3 Rather severe skin roughness was observed.
4 Severe skin roughness was observed.
Using separately the compounds used in Example 1, external skin care preparations (emulsified cosmetic preparations) of their corresponding compositions shown below in Table 2 were formulated. Their effects for the improvement of skin roughness were evaluated in the same manner as in Example 1.

[1] = Invention product 2: emulsified cosmetic, compound 1.0 wt. %, glyceryl ether 2.0 wt. %, 0 = none
[2] = Invention product 3: emulsified cosmetic, compound 1.0 wt. %, arginine monocetylphosphate 2.0 wt. %, 0 = none
[3] = Invention product 4: emulsified cosmetic, compound 1.0 wt. %, polyoxyethylene (20) sorbitan stearate 1.0 and sorbitan monostearate 1.0 wt. %, 0 = none

Row | Compound | Skin conductance (horny layer) | Score of skin roughness (skin roughness; [1]) | Score of skin roughness (skin roughness; [2]) | Score of skin roughness (skin roughness; [3]) | Score of skin roughness (skin roughness; Invention Product 1: vaseline and compound 3:1 by weight, two weeks, 0 = no roughness)
1 | CCCCCCCCCCCCCCCCOCC(O)CN(CCOP(=O)(O)OCCNCc1ccccc1)C(=O)CCCCCCCCCCCCCCC (centres unmarked) [Compound Ie8] | 15 | 0.6 | 1.1 | 1.3 | 
2 | CCCCCCCCCCOCC(O)CN(CCO)CC(O)COCCCCCCCCCC (centres unmarked) [Compound II2] | 8 | 0.8 | 1.0 | 1.2 | 
3 | CCCCCCCCCCCCCCCCOCC(O)CN(C(=O)CCCCCCCCCCCCCCC)C(Cc1c[nH]cn1)C(=O)O (centres unmarked) [Compound Ic12] | 11 | 1.0 | 1.3 | 1.6 | 
4 | CCCCCCCCCCCCCCCCCCOCC(O)CN(CC(O)COCCCCCCCCCC)C(C)=O (centres unmarked) [Compound II11] | 12 | 0.4 | 0.8 | 1.2 | 
5 | CCCCCCCCCCCCCCCCOCC(O)CN(C(=O)CCCCCCCCCCCCCCC)C(Cc1c[nH]c2ccccc12)C(=O)O (centres unmarked) [Compound Ic13] | 10 | 1.1 | 1.4 | 1.7 | 
6 | CCCCCCCCCCCCCCCCOCC(O)CN(C(=O)CCCCCCCCCCCCCCC)C(C(=O)O)C(C)C (centres unmarked) [Compound Ic7] | 15 | 0.6 | 0.8 | 1.1 | 
7 | CCCCCCCCCCCCCCCCCCOCC(O)CN(CCCO)C(=O)CCCCCCCCCCCCCCCCC (centres unmarked) [Compound Ia6] | 23 | 0.1 | 0.3 | 0.7 | 
8 | CCCCCCCCCCCCCCCCC(O)CN(CCO)C(=O)CCCCCCCCC (centres unmarked) [Compound Id2] | 18 | 0.3 | 0.5 | 0.8 | 
9 | CCCCCCCCCCCCCCCCCCOCC(O)CN(CC(=O)O)CC(O)COCCCCCCCCCCCCCCCCCC (centres unmarked) [Compound II8] | 20 | 0.2 | 0.4 | 0.8 | 
10 | CCCCCCCCCCCCCCCCOCC(O)CN(CCO[C@@H]1O[C@H](CO)[C@@H](O)[C@H](O)[C@H]1NC(C)=O)C(=O)CCCCCCCCCCCCCCC (some centres unmarked) [Compound Ie3] | 31 | 0.3 | 0.4 | 0.7 | 
11 | CCCCCCCCCCCCCCCCOCC(O)CN(C(=O)CCCCCCCCCCCCCCC)C(CCC(=O)O)C(=O)O (centres unmarked) [Compound Ic11] | 13 | 0.8 | 1.0 | 1.3 | 
12 | CCCCCCCCCCCCCCCCCC(=O)N(CCCCCCO)CC(O)COCCCCCCCCCC (centres unmarked) [Compound Ia7] | 11 | 0.6 | 0.9 | 1.2 | 
13 | CCCCCCCCCCCCCCCCCC(=O)N(CCOCCO)CC(O)COCCCCCCCCCC (centres unmarked) [Compound Ib4] | 17 | 0.4 | 0.6 | 0.9 | 
14 | CCCCCCCCCCOCC(O)CN(CC(=O)O)CC(O)COCCCCCCCCCC (centres unmarked) [Compound II6] | 7 | 0.8 | 1.0 | 1.2 | 
15 | CCCCCCCCCCCCCCCCOCC(O)CN(C(=O)CCCCCCCCCCCCCCC)C(CO)C(=O)O (centres unmarked) [Compound Ic8] | 18 | 0.4 | 0.6 | 0.9 | 
16 | CCCCCCCCCCCCCCCCCC(=O)N(CC(O)CO)CC(O)COCCCCCCCCCC (centres unmarked) [Compound Ia11] | 19 | 0.3 | 0.5 | 0.8 | 

Row | Compound | Skin conductance (horny layer) | Score of skin roughness (skin roughness; [1]) | Score of skin roughness (skin roughness; [2]) | Score of skin roughness (skin roughness; [3]) | Score of skin roughness (skin roughness; Invention Product 1: vaseline and compound 3:1 by weight, two weeks, 0 = no roughness)
17 | CCCCCCCCCCCCCCCCCCOCC(O)CN(C(=O)CCCCCCCCCCCCCCCCC)C(C)(C)CO (centres unmarked) [Compound Ia15] | 13 | 0.5 | 0.7 | 1.0 | 
18 | CCCCCCCCCCCCCCCCCCOCC(O)CN(CCO)CC(O)COCCCCCCCCCC (centres unmarked) [Compound II3] | 11 | 0.5 | 0.8 | 1.1 | 
19 | CCCCCCCCCCCCCCCCCCOCC(O)CN(CCCO)C(=O)CCCCCCCCC (centres unmarked) [Compound Ia5] | 17 | 0.3 | 0.5 | 1.0 | 
20 | CCCCCCCCCCOCC(O)CN(CCCO)C(=O)CCCCCCCCC (centres unmarked) [Compound Ia3] | 10 | 0.7 | 1.0 | 1.3 | 
21 | CCCCCCCCCCCCCCCCOCC(O)CN(CCO[C@]1(C(=O)O)C[C@H](O)[C@@H](NC(C)=O)[C@H]([C@H](O)[C@H](O)CO)O1)C(=O)CCCCCCCCCCCCCCC (stereo partly drawn) [Compound Ie4, N-(3-hexadecyloxy-2-hydroxypropyl)-N-[2-O-(5-acetamido-3,5-dideoxy-α-D-glycero-β-D-galacto-2-nonuropyranosyl)ethyl]hexadecanamide] | 33 | 0.2 | 0.2 | 0.4 | 0.5
22 | CCCCCCCCCCCCCCCCCC(=O)N(CCOP(=O)([O-])OCC[N+](CC)(CC)CC)CC(O)COCCCCCCCCCCCCCC (centres unmarked) [Compound Ie9] | 18 | 0.6 | 0.6 | 1.0 | 
23 | CCCCCCCCCCCCCCCCCCOCC(O)CN(CCO)CC(O)COCCCCCCCCCCCCCCCCCC (centres unmarked) [Compound II4] | 21 | 0.1 | 0.3 | 0.7 | 
24 | CCCCCCCCCCCCCCCCOCC(O)CN(CCO[C@@H]1O[C@H](CO)[C@@H](O[C@@H]2O[C@H](CO)[C@H](O)[C@H](O)[C@H]2O)[C@H](O)[C@H]1O)C(=O)CCCCCCCCCCCCCCC (stereo partly drawn) [Compound Ie2, N-(3-hexadecyloxy-2-hydroxypropyl)-N-[2-O-(4-β-D-galactopyranosyl-β-D-glucopyranosyl)ethyl]hexadecanamide] | 29 | 0.4 | 0.5 | 0.8 | 
25 | CCCCCCCCCCCCCCCCOCC(O)CN(C(=O)CCCCCCCCCCCCCCC)C(CCSC)C(=O)O (centres unmarked) [Compound Ic9] | 16 | 0.5 | 0.7 | 1.0 | 
26 | CCCCCCCCCCCCCCCCCCOCC(O)CN(CC(O)CO)C(=O)CCCCCCCCC (centres unmarked) [Compound Ia12] | 18 | 0.3 | 0.5 | 0.9 | 
27 | CCCCCCCCCCCCCCCCCC(=O)N(CC(=O)O)CC(O)CCCCCCCCCCCCCCCC (centres unmarked) [Compound Ic4] | 13 | 0.8 | 1.0 | 1.3 | 
28 | CCCCCCCCCCCCCCCCOCC(O)CN(CCO)CC(O)COCCCCCCCCCCCCCCCC (centres unmarked) [Compound II1] | 18 | 0.1 | 0.3 | 0.8 | 
29 | CCCCCCCCCCCCCCCCOCC(O)CN(CCCCCCO)C(=O)CCCCCCCCCCCCCCC (centres unmarked) [Compound Ia2, N-(3-hexadecylocy-2-hydroxypropyl)-N-6-hydroxyhexylhexadecanamide] | 18 | 0.3 | 0.5 | 1.0 | 
30 | CCCCCCCCCCCCCCCCCCOCC(O)CN(CC(=O)O)CC(O)COCCCCCCCCCC (centres unmarked) [Compound II7] | 10 | 0.5 | 0.8 | 1.1 | 
31 | CCCCCCCCCCCCCCCCCCOCC(O)CN(CC(C)O)C(=O)CCCCCCCCCCCCCCCCC (centres unmarked) [Compound Ia13] | 13 | 0.5 | 0.7 | 1.1 | 
